According to the SangsterLogP compilation:

Test: method code SF, from DOI: 10.1111/j.2042-7158.1992.tb14369.x, PMID: 1350635
Conditions: pH 13.0

Row | Structure (SMILES) | logD
1 | CC(C)(C)NCC(O)COc1ccccc1C#N (configuration not stated) | 1.97

Test: method code SF-AS, from DOI: 10.1111/j.2042-7158.1992.tb14369.x, PMID: 1350635
Conditions: pH 13.0

Row | Structure (SMILES) | logD
2 | CC(C)NCC(O)COc1ccccc1C1CC2CCC1C2 (configuration not stated) | 4.17
3 | CC(C)NC[C@H](O)COc1ccc(OCCOCCc2ccc(F)cc2)cc1 | 3.7
4 | Cc1cc2c(OCC(O)CNC(C)C)cccc2[nH]1 (configuration not stated) | 2.3
5 | CC(C)NCC(O)COc1ccc(CCOCC2CC2)cc1 (configuration not stated) | 2.81
6 | CC(C)NCC(O)COc1ccc(COCCOC(C)C)cc1 (configuration not stated) | 1.87
7 | CC(=O)c1cc2cccc(OCC(O)CNC(C)C)c2o1 (configuration not stated) | 2.02

Next, values leading:

Row | logD | Structure (SMILES)
8 | 1.69 | COc1ccccc1OCC(O)CNC(C)C (configuration not stated)
9 | 1.36 | CNC(=O)COc1ccccc1OCC(O)CNC(C)(C)C (configuration not stated)
10 | 0.94 | CC(=O)Nc1ccc(OCC(O)CNC(C)C)c(C(C)=O)c1 (configuration not stated)
11 | 3.07 | CC(C)NCC(O)COc1ccccc1C1CC1 (configuration not stated)
12 | 2.32 | C#CCOc1ccccc1OCC(O)CNC(C)(C)C (configuration not stated)
